This note sets out measurements from patent US5866569A, “Naphthalenedione nitric oxide synthase (NOS) inhibitors” (Ontogen Corporation, priority 1997, dated 1999).

For one test, the target named is T1, iNOS (Mus musculus, UniProt P29477).
T1 construct: iNOS was isolated from interferon-γ and lipopolysaacharide(LPS) stimulated mouse macrophage cells (RAW 264.7 cells); endogenous in cells; host or cells: RAW 264.7 mouse macrophage cells, induced overnight with interferon-γ and LPS; lysate partially purified on ADP sepharose
In words: Nitric oxide synthase activity assay (Griess reagent), iNOS partially purified from interferon-γ/LPS stimulated RAW 264.7 cells. The test is classed as biochemical. The note with it: 90 minutes at 37° C. Background: Nitrite, measured by Griess reagent, commonly stands in for NO production.
Procedure: Thus, iNOS was isolated from interferon-γ and lipopolysaacharide(LPS) stimulated mouse macrophage cells (RAW 264.7 cells). RAW cells were incubated overnight with interferon-γ and LPS. A lysate fraction was prepared by lysing the harvested cells in liquid nitrogen and thawing by incubation in a 37° C. water bath and run over an ADP sepharose column for partial purification.
Nitric Oxide Synthase activity was assayed by adding 10 μL of crude lysate 10 μL of substrate and 10 μL of a selected Compound as depicted in Formula I in DMSO to 70 μL of assay buffer in a 96-well microtiter plate. The wells were mixed gently and incubated for 90 minutes at 37° C. The reaction was stopped by adding 2 units of L-lactic dehydrogenase (5 μL of stock solution) and 5 μmole of sodium pyruvate (10 μL of stock solution). The solution was incubated for an additional 15 minutes at 37° C. 100 μL of Griess reagent was added and read absorbance at 560 nm.
Regarding `O=C1C=C(N2CCCc3ccccc32)c2ccccc2C1=O` [Example 8], the IC50 was found to be 13 µM.

`O=C1C=C(NCCN2CCOCC2)c2ccccc2C1=O` [Example 4] displayed an IC50 of 45 µM.

As for `CC(C)(C)OC(=O)NCCNC1=CC(=O)C(=O)c2ccccc21` [Example 15], the half-inhibitory concentration (IC50) came to 3.8 µM. Compared with the last compound, the IC50 is about 12-fold lower.

Turning to `O=C1C=C(N2CCc3ccccc32)c2ccccc2C1=O` [Example 9], 17 µM corresponded to half-maximal inhibition (IC50).

`O=C1C=C(NCCCn2ccnc2)c2ccccc2C1=O` [Example 3]: inhibition was half-maximal at 41 µM (IC50).

Take `N=C(N)N1CCN(C2=CC(=O)C(=O)c3ccccc32)CC1` [Example 20]: 0.67 µM corresponded to half-maximal inhibition (IC50). This IC50 is about 61-fold lower than that of the compound before.

`O=C1C=C(N2CCN(C(=O)c3ccc([N+](=O)[O-])cc3)CC2)c2ccccc2C1=O` [Example 18] came in with an IC50 of 6.2 µM.

Take `CN1CCN(C2=CC(=O)C(=O)c3ccccc32)CC1` [Example 6]: the midpoint of inhibition, the IC50, lay at 5.4 µM.

In the case of `CC1CCCCN1CCCNC1=CC(=O)C(=O)c2ccccc21` (stereo not shown) [Example 5], the IC50 is 12 µM.

Compound `O=C1C=C(c2ccc[nH]2)c2ccccc2C1=O` [Example 14] showed an IC50 of 7.4 µM.

With `O=C1C=C(Nc2ccccc2)c2ccccc2C1=O` [Example 1], the IC50 was found to be 27 µM.

In turn, `O=C1C=C(N2CCNCC2)c2ccccc2C1=O` [Example 12] yielded an IC50 of 9.9 µM. This IC50 is about 2.7-fold lower than that of the compound before.

Compound `COC(=O)[C@@H]1CCCN1C1=CC(=O)C(=O)c2ccccc21` [Example 10] displayed a 50% inhibitory concentration (IC50) of 44 µM.

`O=C1C=C(N2CCN(C(=O)NCc3ccccc3)CC2)c2ccccc2C1=O` [Example 19]: half-maximal inhibition (IC50) was put at 2.2 µM.

With `COC(=O)[C@H](CCC(=O)N1CCN(C2=CC(=O)C(=O)c3ccccc32)CC1)NC(=O)OCC1c2ccccc2-c2ccccc21` [Example 21], inhibition was half-maximal at 15.6 µM (IC50). This IC50 is about 7.1-fold higher than that of the compound before.

`NCCNC1=CC(=O)C(=O)c2ccccc21` [Example 16] returned an IC50 of 11.2 µM.

With `O=C1C(=O)c2c(nc3ccccn23)-c2ccccc21` [Example 24], the IC50 came out at 2.3 µM.

On to `CCN1CCN(C2=CC(=O)C(=O)c3ccccc32)CC1` [Example 7], for which half-maximal inhibition (IC50) required 8 µM. Against the preceding compound, the IC50 is about 3.5-fold higher.

In the case of `CCN(C1=CC(=O)C(=O)c2ccccc21)c1ccccc1` [Example 2], inhibition was half-maximal at 16 µM (IC50). This IC50 is about 2-fold higher than that of the compound before.

Consider `O=C1C=C(n2cncn2)c2ccccc2C1=O` [Example 13], for which it took 7.8 µM to reach half-maximal inhibition (IC50).

In the case of `CC(=O)N1CCN(C2=CC(=O)C(=O)c3ccccc32)CC1` [Example 17], inhibition was half-maximal at 5.4 µM (IC50). The IC50 values of the last two compounds are within 1.5-fold of each other.

The test is the same for the next values; noted with them: @ 10 μM, read-out: Percentage Inhibition iNOS.
Consider `O=C1C=C(N2CCNCC2)c2cc(O)ccc2C1=O` [Example 11], for which the inhibition at 10 µM was 34%.

A further test deals with nNOS (Homo sapiens, UniProt P29475). The test can be described thus: Nitric oxide synthase activity assay, nNOS. The class given is biochemical.
nNOS, sequence (P29475 whole entry): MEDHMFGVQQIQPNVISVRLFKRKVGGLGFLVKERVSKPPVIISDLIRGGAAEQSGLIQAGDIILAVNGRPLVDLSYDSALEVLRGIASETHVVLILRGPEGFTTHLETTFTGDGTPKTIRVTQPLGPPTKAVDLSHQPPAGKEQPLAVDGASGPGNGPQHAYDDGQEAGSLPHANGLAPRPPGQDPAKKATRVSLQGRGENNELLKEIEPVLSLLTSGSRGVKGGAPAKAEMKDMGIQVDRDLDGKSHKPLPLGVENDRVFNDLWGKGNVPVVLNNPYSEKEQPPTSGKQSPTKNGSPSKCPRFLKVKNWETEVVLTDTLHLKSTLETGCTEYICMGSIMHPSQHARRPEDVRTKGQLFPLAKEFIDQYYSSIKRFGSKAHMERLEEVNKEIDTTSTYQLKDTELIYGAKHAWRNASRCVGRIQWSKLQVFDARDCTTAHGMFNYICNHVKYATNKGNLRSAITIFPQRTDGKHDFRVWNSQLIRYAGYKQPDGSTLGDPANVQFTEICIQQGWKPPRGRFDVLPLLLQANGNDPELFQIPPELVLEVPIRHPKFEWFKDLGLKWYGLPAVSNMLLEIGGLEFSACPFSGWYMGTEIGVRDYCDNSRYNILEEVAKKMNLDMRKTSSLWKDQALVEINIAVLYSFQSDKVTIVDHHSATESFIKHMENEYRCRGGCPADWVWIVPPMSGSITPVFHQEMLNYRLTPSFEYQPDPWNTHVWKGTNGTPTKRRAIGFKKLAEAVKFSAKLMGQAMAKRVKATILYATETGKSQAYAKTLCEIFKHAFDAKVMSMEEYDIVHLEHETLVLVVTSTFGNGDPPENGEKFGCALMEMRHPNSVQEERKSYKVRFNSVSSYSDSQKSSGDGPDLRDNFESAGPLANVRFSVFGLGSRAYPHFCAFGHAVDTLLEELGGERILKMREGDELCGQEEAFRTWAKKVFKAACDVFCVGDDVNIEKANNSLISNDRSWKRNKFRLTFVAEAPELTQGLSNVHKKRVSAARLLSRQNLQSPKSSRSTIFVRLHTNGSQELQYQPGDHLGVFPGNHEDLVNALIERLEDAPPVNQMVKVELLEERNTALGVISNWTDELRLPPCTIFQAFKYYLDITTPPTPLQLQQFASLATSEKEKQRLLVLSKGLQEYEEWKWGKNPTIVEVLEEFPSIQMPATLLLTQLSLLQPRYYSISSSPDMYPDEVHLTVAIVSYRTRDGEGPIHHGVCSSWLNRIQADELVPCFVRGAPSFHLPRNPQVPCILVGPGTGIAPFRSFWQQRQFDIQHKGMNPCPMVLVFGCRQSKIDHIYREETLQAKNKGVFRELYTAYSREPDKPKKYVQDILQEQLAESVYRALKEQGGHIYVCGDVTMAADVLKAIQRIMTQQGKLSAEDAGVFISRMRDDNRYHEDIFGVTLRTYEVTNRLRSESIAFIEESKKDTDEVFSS
Settings: not given
`CC(C)(C)OC(=O)NCCNC1=CC(=O)C(=O)c2ccccc21` [Example 15]: the IC50 was found to be 1.1 µM.

As for `N=C(N)N1CCN(C2=CC(=O)C(=O)c3ccccc32)CC1` [Example 20], the IC50 worked out at 0.57 µM.

For `O=C1C=C(N2CCN(C(=O)c3ccc([N+](=O)[O-])cc3)CC2)c2ccccc2C1=O` [Example 18], half-maximal inhibition (IC50) was put at 1.2 µM. Compared with the last compound, the IC50 is about 2.1-fold higher.

The compound `CN1CCN(C2=CC(=O)C(=O)c3ccccc32)CC1` [Example 6] yielded an IC50 of 2 µM.

Compound `O=C1C=C(N2CCNCC2)c2ccccc2C1=O` [Example 12] registered an IC50 of 2.1 µM.

`O=C1C=C(N2CCN(C(=O)NCc3ccccc3)CC2)c2ccccc2C1=O` [Example 19] registered a half-inhibitory concentration (IC50) of 2.1 µM.

For the compound `COC(=O)[C@H](CCC(=O)N1CCN(C2=CC(=O)C(=O)c3ccccc32)CC1)NC(=O)OCC1c2ccccc2-c2ccccc21` [Example 21], the concentration for half-maximal inhibition (IC50) was determined as 1.9 µM. This IC50 and that of the compound before are within 1.5-fold of each other.

Compound `NCCNC1=CC(=O)C(=O)c2ccccc21` [Example 16] gave an IC50 of 3.2 µM.

`O=C1C(=O)c2c(nc3ccccn23)-c2ccccc21` [Example 24] yielded an IC50 of 0.27 µM.

For orientation: IC50 means the point on the concentration scale where inhibition reaches its midpoint. As a reminder, the inhibition is the drop in the measured response relative to a control, in per cent.
